Experiments:
[1] = molecular target: T1, Endonuclease III-like protein 1 (Homo sapiens) (UniProt P78549); settings: Hit No;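 note: enzyme assay tracking NTHL1 cutting and release of a quenched double-stranded DNA oligo substrate, read as fluorescence at 594 nm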
T1 sequence (whole entry): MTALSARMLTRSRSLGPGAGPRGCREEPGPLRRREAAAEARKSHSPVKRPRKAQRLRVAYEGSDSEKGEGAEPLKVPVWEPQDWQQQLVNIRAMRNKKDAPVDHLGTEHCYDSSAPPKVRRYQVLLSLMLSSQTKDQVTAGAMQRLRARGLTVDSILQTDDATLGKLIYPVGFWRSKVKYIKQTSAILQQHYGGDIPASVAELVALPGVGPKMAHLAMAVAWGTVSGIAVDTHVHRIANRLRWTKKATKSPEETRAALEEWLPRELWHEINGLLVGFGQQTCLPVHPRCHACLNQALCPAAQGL
Description: Inhibition of NTHL1 by quantifying inhibition of NTHL1-mediated cleavage and dissociation of quenched duplex DNA oligonucleotides, measured as fluorescence at 594 nm.

[2] = molecular target: G/T mismatch-specific thymine DNA glycosylase (Homo sapiens) (UniProt Q13569); settings: Hit No;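 note: human TDG cleavage of quenched duplex DNA oligonucleotides coupled to APE1, strand release read as fluorescence at 594 nm, inhibition of TDG activity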
Sequence of G/T mismatch-specific thymine DNA glycosylase (Homo sapiens) (Q13569 whole entry): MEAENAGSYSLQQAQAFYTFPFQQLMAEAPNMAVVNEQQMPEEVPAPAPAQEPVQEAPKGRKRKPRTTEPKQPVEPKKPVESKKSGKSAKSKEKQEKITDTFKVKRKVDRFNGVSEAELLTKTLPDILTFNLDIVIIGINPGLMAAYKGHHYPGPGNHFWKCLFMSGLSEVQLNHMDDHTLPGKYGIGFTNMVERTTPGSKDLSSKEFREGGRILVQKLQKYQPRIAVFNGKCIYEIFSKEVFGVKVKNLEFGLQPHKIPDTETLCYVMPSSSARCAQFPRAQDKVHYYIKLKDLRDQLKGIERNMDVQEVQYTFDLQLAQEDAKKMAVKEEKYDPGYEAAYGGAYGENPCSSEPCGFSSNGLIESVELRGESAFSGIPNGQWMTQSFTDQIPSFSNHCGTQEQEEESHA
Description: Inhibition of TDG by quantifying inhibition of TDG-mediated cleavage and dissociation of quenched duplex DNA oligonucleotides, measured as fluorescence at 594 nm. To generate a functional strand incision and increase turn-over this assay is coupled to APE1.

[3] = molecular target: Uracil-DNA glycosylase (Homo sapiens) (UniProt P13051); settings: Hit No;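 note: UNG excision on a quenched double-stranded DNA oligo probe, with APE1 added for strand incision and turnover, read as fluorescence at 594 nm as strands separate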
Sequence of Uracil-DNA glycosylase (Homo sapiens) (P13051 whole entry): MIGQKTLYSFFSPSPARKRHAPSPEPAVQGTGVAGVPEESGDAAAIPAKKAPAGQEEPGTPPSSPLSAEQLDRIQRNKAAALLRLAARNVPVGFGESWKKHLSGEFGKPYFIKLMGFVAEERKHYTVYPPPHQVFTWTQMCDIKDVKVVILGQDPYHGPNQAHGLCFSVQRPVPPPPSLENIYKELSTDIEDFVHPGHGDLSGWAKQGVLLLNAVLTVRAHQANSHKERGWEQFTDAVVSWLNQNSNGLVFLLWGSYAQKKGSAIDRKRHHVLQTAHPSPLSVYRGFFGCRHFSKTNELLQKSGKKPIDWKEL
Description: Inhibition of UNG by quantifying inhibition of UNG-mediated cleavage and dissociation of quenched duplex DNA oligonucleotides, measured as fluorescence at 594 nm. To generate a functional strand incision and increase turn-over this assay is coupled to APE1.

[4] = molecular target: Endonuclease 8-like 1 (Homo sapiens) (UniProt Q96FI4); settings: Hit No;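 note: fluorescence at 594 nm from quenched duplex DNA oligonucleotides released by NEIL1 cleavage and strand separation, reported as reduction of this enzyme activity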
Sequence of Endonuclease 8-like 1 (Homo sapiens) (Q96FI4 whole entry): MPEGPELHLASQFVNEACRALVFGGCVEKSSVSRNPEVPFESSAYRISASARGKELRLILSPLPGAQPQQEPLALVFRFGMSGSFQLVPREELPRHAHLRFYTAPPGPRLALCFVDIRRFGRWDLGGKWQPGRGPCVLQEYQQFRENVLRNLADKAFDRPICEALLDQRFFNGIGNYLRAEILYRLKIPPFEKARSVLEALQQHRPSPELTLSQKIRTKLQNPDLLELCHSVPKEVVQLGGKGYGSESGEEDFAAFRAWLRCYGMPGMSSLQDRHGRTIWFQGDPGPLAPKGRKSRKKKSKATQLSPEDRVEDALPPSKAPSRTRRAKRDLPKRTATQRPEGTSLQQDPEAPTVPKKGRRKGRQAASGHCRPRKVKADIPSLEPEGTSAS
Description: Inhibition of NEIL1 by quantifying inhibition of NEIL1-mediated cleavage and dissociation of quenched duplex DNA oligonucleotides, measured as fluorescence at 594 nm.

[5] = molecular target: T2, Single-strand selective monofunctional uracil DNA glycosylase (Homo sapiens) (UniProt Q53HV7); settings: Hit No;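 note: enzymatic SMUG1 assay coupled with APE1, reading fluorescence at 594 nm released when a quenched double-stranded DNA oligonucleotide substrate is cleaved and separated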
T2 sequence (whole entry): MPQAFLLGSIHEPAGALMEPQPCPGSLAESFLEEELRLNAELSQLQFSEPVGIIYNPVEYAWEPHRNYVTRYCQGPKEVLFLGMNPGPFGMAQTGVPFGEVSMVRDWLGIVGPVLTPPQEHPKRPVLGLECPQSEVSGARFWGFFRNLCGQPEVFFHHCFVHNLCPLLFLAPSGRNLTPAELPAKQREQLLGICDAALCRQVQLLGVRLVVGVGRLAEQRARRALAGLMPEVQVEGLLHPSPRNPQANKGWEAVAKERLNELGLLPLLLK
Description: Inhibition of SMUG1 by quantifying inhibition of SMUG1-mediated cleavage and dissociation of quenched duplex DNA oligonucleotides, measured as fluorescence at 594 nm. To generate a functional strand incision and increase turn-over this assay is coupled to APE1.

[6] = molecular target: T3, Adenine DNA glycosylase (Homo sapiens) (UniProt Q9UIF7); settings: Hit No;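 note: human MUTYH activity read as 594 nm fluorescence from cleavage and release of a quenched DNA duplex, coupled with APE1 for strand incision, lower signal meaning inhibition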
T3 sequence (whole entry): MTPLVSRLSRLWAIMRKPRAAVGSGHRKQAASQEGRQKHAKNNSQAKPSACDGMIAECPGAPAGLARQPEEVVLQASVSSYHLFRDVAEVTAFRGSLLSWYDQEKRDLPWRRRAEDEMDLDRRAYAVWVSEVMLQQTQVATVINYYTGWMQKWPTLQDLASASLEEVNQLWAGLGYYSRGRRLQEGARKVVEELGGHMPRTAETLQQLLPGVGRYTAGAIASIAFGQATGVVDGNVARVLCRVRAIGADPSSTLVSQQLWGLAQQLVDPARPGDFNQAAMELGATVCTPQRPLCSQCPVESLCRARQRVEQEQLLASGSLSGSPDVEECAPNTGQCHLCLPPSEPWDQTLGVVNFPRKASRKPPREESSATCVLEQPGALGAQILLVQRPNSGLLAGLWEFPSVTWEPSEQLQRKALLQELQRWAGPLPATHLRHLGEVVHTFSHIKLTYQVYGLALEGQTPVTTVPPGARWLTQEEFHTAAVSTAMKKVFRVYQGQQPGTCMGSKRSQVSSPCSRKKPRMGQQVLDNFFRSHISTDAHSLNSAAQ
Description: Inhibition of MUTYH by quantifying inhibition of MUTYH-mediated cleavage and dissociation of quenched duplex DNA oligonucleotides, measured as fluorescence at 594 nm. To generate a functional strand incision and increase turn-over this assay is coupled to APE1.

[7] = molecular target: T4, Endonuclease 8-like 2 (Homo sapiens) (UniProt Q969S2);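 note: fluorescence at 594 nm reports NEIL2 cutting and release of a quenched double-stranded DNA oligo substrate, reduced signal read as inhibition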
T4 sequence (whole entry): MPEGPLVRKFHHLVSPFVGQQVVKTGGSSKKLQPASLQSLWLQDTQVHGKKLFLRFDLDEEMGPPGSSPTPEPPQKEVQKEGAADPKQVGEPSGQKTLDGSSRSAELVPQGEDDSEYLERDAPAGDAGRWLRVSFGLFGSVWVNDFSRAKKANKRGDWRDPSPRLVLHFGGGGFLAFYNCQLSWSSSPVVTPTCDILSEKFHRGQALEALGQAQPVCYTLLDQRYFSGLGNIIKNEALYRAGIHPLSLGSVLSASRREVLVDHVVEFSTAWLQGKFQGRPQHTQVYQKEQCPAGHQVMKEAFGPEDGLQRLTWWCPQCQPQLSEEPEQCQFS
Description: Inhibition of NEIL2 by quantifying inhibition of NEIL2-mediated cleavage and dissociation of quenched duplex DNA oligonucleotides, measured as fluorescence at 594 nm.

[8] = molecular target: N-glycosylase/DNA lyase (Homo sapiens) (UniProt O15527); settings: Hit No;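 note: OGG1 cleavage of a quenched duplex DNA oligonucleotide, coupled to APE1 for strand incision, read as fluorescence at 594 nm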
Sequence of N-glycosylase/DNA lyase (Homo sapiens) (O15527 whole entry, the tested form may be a part): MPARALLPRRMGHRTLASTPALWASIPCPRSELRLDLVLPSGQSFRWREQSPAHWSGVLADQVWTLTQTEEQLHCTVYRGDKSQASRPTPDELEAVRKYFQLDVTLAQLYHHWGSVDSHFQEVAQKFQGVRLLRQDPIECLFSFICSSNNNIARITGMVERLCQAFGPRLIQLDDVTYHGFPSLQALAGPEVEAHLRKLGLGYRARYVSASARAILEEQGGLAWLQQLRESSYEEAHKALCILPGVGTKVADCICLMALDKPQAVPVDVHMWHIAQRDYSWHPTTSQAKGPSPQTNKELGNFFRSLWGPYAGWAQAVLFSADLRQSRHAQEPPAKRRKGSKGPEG
Description: Inhibition of OGG1 by quantifying inhibition of OGG1-mediated cleavage and dissociation of quenched duplex DNA oligonucleotides, measured as fluorescence at 594 nm. To generate a functional strand incision and increase turn-over this assay is coupled to APE1.

[9] = molecular target: Methyl-CpG-binding domain protein 4 (Homo sapiens) (UniProt O95243); settings: Hit No;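 note: MBD4 activity read as fluorescence at 594 nm from cleavage and release of a quenched duplex DNA oligonucleotide, with APE1 coupled to incise the strand and raise turnover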
Sequence of Methyl-CpG-binding domain protein 4 (Homo sapiens) (O95243 whole entry, the tested form may be a part): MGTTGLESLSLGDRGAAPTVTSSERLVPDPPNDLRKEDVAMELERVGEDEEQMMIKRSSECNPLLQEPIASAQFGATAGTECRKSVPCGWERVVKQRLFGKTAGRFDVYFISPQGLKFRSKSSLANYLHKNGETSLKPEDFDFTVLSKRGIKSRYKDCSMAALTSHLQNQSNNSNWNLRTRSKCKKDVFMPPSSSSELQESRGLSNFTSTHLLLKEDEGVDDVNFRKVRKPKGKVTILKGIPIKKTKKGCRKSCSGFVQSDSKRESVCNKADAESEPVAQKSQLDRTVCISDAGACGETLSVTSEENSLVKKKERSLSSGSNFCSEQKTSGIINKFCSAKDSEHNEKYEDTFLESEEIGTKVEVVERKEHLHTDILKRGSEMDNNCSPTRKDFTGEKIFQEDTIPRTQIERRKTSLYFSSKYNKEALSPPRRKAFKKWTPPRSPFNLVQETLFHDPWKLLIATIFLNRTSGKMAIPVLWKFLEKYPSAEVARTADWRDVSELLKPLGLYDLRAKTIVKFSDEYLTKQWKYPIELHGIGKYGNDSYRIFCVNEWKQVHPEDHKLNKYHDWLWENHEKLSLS
Description: Inhibition of MBD4 by quantifying inhibition of MBD4-mediated cleavage and dissociation of quenched duplex DNA oligonucleotides, measured as fluorescence at 594 nm. To generate a functional strand incision and increase turn-over this assay is coupled to APE1.

[10] = Compound Concentration 1.0 uM, Hit No
[11] = Compound Concentration 10.0 uM, Hit No
[12] = Compound Concentration 10.0 uM, Hit Yes

| Structure (SMILES) | inhibition ([1]; Compound Concentration 10.0 uM) [%] | inhibition ([2]; Compound Concentration 10.0 uM) [%] | inhibition ([3]; Compound Concentration 10.0 uM) [%] | inhibition ([4]; Compound Concentration 10.0 uM) [%] | inhibition ([5]; Compound Concentration 10.0 uM) [%] | inhibition ([6]; Compound Concentration 10.0 uM) [%] | inhibition ([1]; Compound Concentration 1.0 uM) [%] | inhibition ([2]; Compound Concentration 1.0 uM) [%] | inhibition ([3]; Compound Concentration 1.0 uM) [%] | inhibition ([4]; Compound Concentration 1.0 uM) [%] | inhibition ([5]; Compound Concentration 1.0 uM) [%] | inhibition ([6]; Compound Concentration 1.0 uM) [%] | inhibition [7, 10] [%] | inhibition ([8]; Compound Concentration 10.0 uM) [%] | inhibition [7, 11] [%] | inhibition [7, 12] [%] | inhibition ([9]; Compound Concentration 10.0 uM) [%] | inhibition ([9]; Compound Concentration 1.0 uM) [%] | inhibition ([8]; Compound Concentration 1.0 uM) [%] |
| --- | --- | --- | --- | --- | --- | --- | --- | --- | --- | --- | --- | --- | --- | --- | --- | --- | --- | --- | --- |
| Cn1cnc2c(F)c(Nc3ccc(Br)cc3Cl)c(C(=O)NOCCO)cc21 | -8.28 | 39.7 | -1.17 | 11.5 | 16.2 | -2.18 | – | – | – | – | – | – | – | – | – | – | – | – | – |
| Cn1cc(-c2[nH]c3cc(NC(=O)[C@H](N)C4CCCCC4)cc4c3c2C=NNC4=O)cn1 | – | – | – | – | – | – | -0.61 | 43.2 | 0.598 | -1.18 | 19.2 | -0.0556 | -5.15 | – | – | – | – | – | – |
| COc1ccccc1CN[C@H]1C2CCN(CC2)[C@H]1C(c1ccccc1)c1ccccc1 | -5.41 | 0.738 | -4.4 | -4.06 | – | 11.2 | – | – | – | – | – | – | – | -6.59 | -6.97 | – | – | – | – |
| CC(C)NCC(O)COc1cccc2ccccc12 (configuration not stated) | 13.7 | 5.22 | -6.12 | -0.797 | 3.41 | 3.6 | – | – | – | – | – | – | – | – | – | 35 | – | – | – |
| CC(=O)NCCc1c(Cc2ccccc2)[nH]c2ccccc12 | 2.66 | 16.3 | – | 4.1 | – | 0.533 | – | – | – | – | – | – | – | -9.93 | 3.51 | – | – | – | – |
| CN(C)C/C=C/C(=O)Nc1cc2c(Nc3ccc(F)c(Cl)c3)ncnc2cc1O[C@H]1CCOC1 | – | – | – | – | – | – | 4.97 | 46.9 | -1.9 | – | -1.31 | 19.4 | – | – | – | – | – | – | – |
| COc1ccc(Oc2cc(NCCC(F)(F)F)c3ncc(-c4ccc(C(=O)NC5CC5)c(C)c4)n3n2)c(F)c1F | -2 | 93.1 | 0.303 | – | 5.15 | -2.54 | – | – | – | – | – | – | – | – | – | – | – | – | – |
| C=CCN1C[C@H](C(=O)N(CCCN(C)C)C(=O)NCC)C[C@@H]2c3cccc4[nH]cc(c34)C[C@H]21 | 1.92 | -7.89 | – | 10.6 | -9.96 | 1.81 | – | – | – | – | – | – | – | – | -3.73 | – | – | – | – |
| CNC(=O)Nc1ccc(-c2nc(N3CC4CCC(C3)O4)c3cnn(C4CCC5(CC4)OCCO5)c3n2)cc1 | 2.88 | 46.1 | 6.27 | 2.52 | 15.7 | 5.83 | – | – | – | – | – | – | – | – | – | – | – | – | – |
| CNc1cc(Oc2cc(C(=O)Nc3cc(N4CCN(C)CC4)cc(C(F)(F)F)c3)ccc2C)ncn1 | 11.9 | 76.5 | -3.12 | – | -8.61 | -9.46 | – | – | – | – | – | – | – | – | – | – | – | – | – |
| OC[C@H]1O[C@@H](n2cnc3c(NC4CCCC4)ncnc32)[C@H](O)[C@@H]1O | 7.05 | -6.42 | – | 2.61 | -9.38 | 9.75 | – | – | – | – | – | – | – | – | 11.2 | – | – | – | – |
| Cn1cc(Nc2nccc(N3CC4CCC(C3)N4C(=O)[C@@H]3CC3(F)F)n2)cn1 | – | 35.9 | -0.791 | 0.138 | 8.21 | -8.86 | – | – | – | – | – | – | – | -0.945 | -8.92 | – | -6.61 | – | – |
| O=C(NNS(=O)(=O)c1ccccc1)c1cc(-c2ccnnc2)ccc1F | – | 49.7 | 6.08 | -4.38 | 13.8 | 0.332 | – | – | – | – | – | – | – | 8.54 | 5.38 | – | 88.3 | – | – |
| CNCc1ccccc1-c1csc([C@@H](C)Nc2nc(C)nc3cc(OC)c(OC)cc23)c1 | – | 66.2 | 14.2 | -5.89 | 5.31 | 19.2 | – | – | – | – | – | – | – | 16.5 | – | 38 | 8.88 | – | – |
| Nc1nc(NCc2ccccc2)nc(-c2ccccc2CO)n1 | – | 52 | 2.12 | -7.11 | -2.01 | -3 | – | – | – | – | – | – | – | 4.21 | 5.12 | – | 61.2 | – | – |
| N#CN1CC[C@@H](C(=O)Nc2nc3c(s2)CN(C(=O)CN=[N+]=[N-])CC3)C1 | – | 50.9 | 4.95 | 6.22 | 2.3 | -2.56 | – | – | – | – | – | – | – | 3.62 | -7.63 | – | 54.3 | – | – |
| Nc1cnc(N2CCc3cc(S(=O)(=O)Nc4c(F)cc(Cl)cc4F)cc(N4CCCC4=O)c32)nc1 | – | – | – | – | – | – | – | 41.3 | -1.59 | -8.47 | 6.61 | -0.378 | -0.999 | – | – | – | – | 55.9 | 0.18 |
| O=C(N[C@H]1CCCCC/C=C\C2C[C@@]2(C(=O)O)NC(=O)[C@@H]2C[C@@H](Oc3ccncc3)CN2C1=O)OC1CCCC1 (some centres not stated) | – | 61.5 | 4.34 | 2.74 | 20 | 1.97 | – | – | – | – | – | – | – | 25.2 | -0.999 | – | 61.8 | – | – |
| CC1CCN(c2ccnc(NCc3cn(C)cn3)n2)CC1 | – | 50.4 | 5.91 | 1.98 | 15.3 | 19.8 | – | – | – | – | – | – | – | 19.9 | 3.08 | – | 67.6 | – | – |
| CC(=O)Nc1nc(C)c(S(=O)(=O)Nc2ccc(C(O)(C(F)(F)F)C(F)(F)F)cc2)s1 | – | 98.2 | 5.29 | 1.83 | 23 | 13.4 | – | – | – | – | – | – | – | 9.77 | 2.83 | – | 60.1 | – | – |
| Cc1cc(-c2ccnc(Nc3cnn(C)c3)n2)ccc1CNC(=O)N1CC(OC(C)C)C1 | – | 44.6 | 4.16 | -3.03 | 28.1 | 22.5 | – | – | – | – | – | – | – | 9.56 | -6.23 | – | 12.6 | – | – |
| COc1cc(-c2cncc(-c3ccc(N4CCN(C(C)C)CC4)cc3)c2C)cc(F)c1C(N)=O | – | 38.5 | 5.22 | 5.68 | 31.3 | -6.43 | – | – | – | – | – | – | – | 10.3 | 1.85 | – | 0.764 | – | – |
| N[C@@H]1CCCN(c2c(/C=C3\SC(=O)NC3=O)cccc2-c2ccccc2)C1 | – | – | – | – | – | – | – | 64.1 | 7.16 | -5.54 | 28.4 | 3.22 | 1.04 | – | – | – | – | 5.7 | 16.9 |
| CN(C)[C@H]1CCN(c2cc(-c3ccccc3)nc3ccnn23)C1 | – | 49 | 9.72 | 6.98 | 13.5 | 15.6 | – | – | – | – | – | – | – | 10.6 | 9.71 | – | 77.8 | – | – |
| Cc1nc(C#Cc2cccnc2)cs1 | – | 4.62 | -6.91 | 1.49 | -8.43 | 5.76 | – | – | – | – | – | – | – | -7.91 | -1.88 | – | -0.814 | – | – |
| OCCOCCN1CCN(C(c2ccccc2)c2ccc(Cl)cc2)CC1 (configuration not stated) | – | 3.31 | -3.83 | 4.39 | 2.34 | -3.56 | – | – | – | – | – | – | – | -2.03 | -2.98 | – | 1.54 | – | – |
| CCC(=O)NC[C@@H]1C[C@H]1c1cccc2c1CCO2 | -4.67 | 4.27 | – | 4.24 | – | 2.71 | – | – | – | – | – | – | – | 1.29 | -7.72 | – | – | – | – |
